Test results as given in US20210403860A1 (priority 2018, published 2021).
Where “and” joins values, the source holds several entries; their conditions need not be identical. Equal values may be shown once. Read-outs that look alike come from different tables or passages of the source.

Columns and labels:
Comamonas terrigena = type: cell-based
[1] = system: Flavobacterium acidificum; type: cell-based
[2] = system: Stenotrophomonas bentonitica; type: cell-based
Pantoea cypripedii = type: cell-based
Clostridium argentinense = type: cell-based
Pseudomonas putida = type: cell-based
Paenibacillus silvae = type: cell-based
[3] = system: Lysinibacillus mangiferihumi; type: cell-based
Ca. L. asiaticus [4] = type: cell-based, Candidatus Liberibacter asiaticus (strain psy62); details: for fold change in Ca. L. asiaticus GE: 7 days
Bacillus cereus [5] = type: cell-based
Brevibacillus gelatini = type: cell-based
Bacillaceae = type: cell-based
Bacillus cereus [6] = details: cited from earlier work
Ca. L. asiaticus [7] = details: cited from earlier work
Pseudomonadaceae = type: cell-based
Ca. L. asiaticus [8] = type: cell-based; details: 10 mM glucose and 100 μg/ml amikacin

C[C@H]1O[C@H](O[C@H]2[C@H](O)[C@@H](O)[C@@H](O)[C@H](O)[C@@H]2O)[C@@H](N)C[C@@H]1NC(=N)C(=O)O [kasugamycin]
proportion of OTU 6 (Comamonas terrigena): 0.000 | proportion of OTU 10 [1]: 0.056 | proportion of OTU 2 [2]: 0.136 | proportion of OTU 7 (Pantoea cypripedii): 0.005 | proportion of OTU 5 (Clostridium argentinense; Kag 0.25 μg/ml): 0.030 | proportion of OTU 1 (Pseudomonas putida): 0.599 | proportion of OTU 8 (Paenibacillus silvae): 0.000 | proportion of OTU 4 [3]: 0.000 | enhancement of Ca. L. asiaticus growth (Ca. L. asiaticus [4]; kasugamycin treatment): did not enhance | proportion of OTU 3 (Bacillus cereus [5]): 0.001 | proportion of OTU 9 (Brevibacillus gelatini): 0.001

polymyxin B
reads that were Bacillaceae members (Bacillaceae): 70.7% | proportion of OTU 5 (Clostridium argentinense; Pmb 0.5 μg/ml): 0.194 | proportion of OTU 5 (Clostridium argentinense; Pmb 2 μg/ml): 0.001 | proportion of OTU 5 (Clostridium argentinense; Pmb 4 μg/ml): 0.011 | concentration sub-inhibitory to Bacillus cereus (Bacillus cereus [6]): < 0.65 µg/mL | proportion of OTU 8 (Paenibacillus silvae): 0.000 | proportion of OTU 4 [3]: 0.000 | fold change in Ca. L. asiaticus GE (Ca. L. asiaticus [4]; 2 μg/ml polymyxin B, vs non-antibiotic control): 2.28±0.15 fold | fold change in Ca. L. asiaticus GE (Ca. L. asiaticus [4]; 4 μg/ml polymyxin B, vs non-antibiotic control): 4.54±0.83 fold | fold change in Ca. L. asiaticus GE (Ca. L. asiaticus [4]; <1 μg/ml polymyxin B, vs untreated cultures): 0.03±0.13 fold | activity against / sensitivity of Ca. L. asiaticus (Ca. L. asiaticus [7]): not active | decrease of proportion of Pseudomonadaceae compared to non-antibiotic samples (Pseudomonadaceae): 30.5 times

NCC[C@H](O)C(=O)N[C@@H]1C[C@H](N)[C@@H](O[C@H]2O[C@H](CN)[C@@H](O)[C@H](O)[C@H]2O)[C@H](O)[C@H]1O[C@H]1O[C@H](CO)[C@@H](O)[C@H](N)[C@H]1O [amikacin]
activity against / sensitivity of Ca. L. asiaticus (Ca. L. asiaticus [7]): does not appear to be sensitive | Ca. L. asiaticus GE, day 3 (Ca. L. asiaticus [8]; 10% O2 (FIG. 13)): 1.15×10^5±2.8×10^4 GE | fold potentiation in Ca. L. asiaticus DNA content vs glucose alone (Ca. L. asiaticus [8]; three days): 3.03 fold | overall fold increase in GE compared to starting material (d0) (Ca. L. asiaticus [8]; three days): 11.1 fold

CN[C@H](CC(C)C)C(=O)N[C@H]1C(=O)N[C@@H](CC(N)=O)C(=O)N[C@H]2C(=O)N[C@H]3C(=O)N[C@H](C(=O)N[C@H](C(=O)O)c4cc(O)cc(O)c4-c4cc3ccc4O)[C@H](O)c3ccc(c(Cl)c3)Oc3cc2cc(c3O[C@@H]2O[C@H](CO)[C@@H](O)[C@H](O)[C@H]2O[C@H]2C[C@](C)(N)[C@H](O)[C@H](C)O2)Oc2ccc(cc2Cl)[C@H]1O [vancomycin]
proportion of OTU 5 (Clostridium argentinense; Van 25 μg/ml): 0.120 | proportion of OTU 5 (Clostridium argentinense; Van 35 μg/ml): 0.101 | proportion of OTU 5 (Clostridium argentinense; Van 50 μg/ml): 0.071 | proportion of OTU 5 (Clostridium argentinense; Van 75 μg/ml): 0.039 | proportion of OTU 5 (Clostridium argentinense; Van 100 μg/ml): 0.004 | proportion of OTU 1 (Pseudomonas putida): 0.479 and 0.469 and 0.398 and 0.318 and 0.527 | proportion of OTU 8 (Paenibacillus silvae): 0.000 | fold change in Ca. L. asiaticus GE (Ca. L. asiaticus [4]; 50 μg/ml vancomycin, vs non-antibiotic control): 7.35±0.27 fold | proportion of OTU 9 (Brevibacillus gelatini): 0.000

[H]/N=C(/N)N[C@H]1[C@H](O)[C@@H](O)[C@H](O[C@@H]2O[C@@H](C)[C@](O)(C=O)[C@H]2O[C@@H]2O[C@@H](CO)[C@H](O)[C@@H](O)[C@@H]2NC)[C@@H](N/C(N)=N\[H])[C@@H]1O [streptomycin]
proportion of OTU 10 [1]: 0.000 | proportion of OTU 5 (Clostridium argentinense; Str 0.02 μg/ml): 0.002 | proportion of OTU 5 (Clostridium argentinense; Str 0.05 μg/ml): 0.007 | proportion of OTU 5 (Clostridium argentinense; Str 0.5 μg/ml): 0.154 | proportion of OTU 5 (Clostridium argentinense; Str 1.00 μg/ml): 0.131 | proportion of OTU 5 (Clostridium argentinense; Str 2.00 μg/ml): 0.104 | concentration sub-inhibitory to Bacillus cereus (Bacillus cereus [6]): < 2.9 µg/mL | proportion of OTU 8 (Paenibacillus silvae): 0.000 | proportion of OTU 4 [3]: 0.000 | fold change in Ca. L. asiaticus GE (Ca. L. asiaticus [4]; 0.02 μg/ml streptomycin, vs non-antibiotic control): 5.56±0.15 fold and ~6 fold | Ca. L. asiaticus growth compared to untreated cultures (Ca. L. asiaticus [4]; streptomycin >0.5 μg/ml): reduced | decrease of proportion of Pseudomonadaceae compared to non-antibiotic samples (Pseudomonadaceae): 5.5 times and 9.8 times
